In paper PMC10636026, “Coordinated regulation of the entry and exit steps of aromatic amino acid biosynthesis supports the dual lignin pathway in grasses” (Nature Communications, 2023):
Each block holds one molecule with its values, some of them ahead of it.

What was measured:
Format in all cases: biochemical
[1] = biological target: T1, BdTyrA2 (arogenate dehydrogenase) (Brachypodium distachyon, UniProt I1GWX1); test: recombinant purified enzyme, arogenate dehydrogenase assay (NADPH at […] nm); Ki calculated from IC50 and Km; settings: read-out: Ki / (μM tyrosine)
T1 construct: gene LOC100833753; without the predicted plastid transit peptide, poly-histidine tag
T1 sequence (I1GWX1 56-365): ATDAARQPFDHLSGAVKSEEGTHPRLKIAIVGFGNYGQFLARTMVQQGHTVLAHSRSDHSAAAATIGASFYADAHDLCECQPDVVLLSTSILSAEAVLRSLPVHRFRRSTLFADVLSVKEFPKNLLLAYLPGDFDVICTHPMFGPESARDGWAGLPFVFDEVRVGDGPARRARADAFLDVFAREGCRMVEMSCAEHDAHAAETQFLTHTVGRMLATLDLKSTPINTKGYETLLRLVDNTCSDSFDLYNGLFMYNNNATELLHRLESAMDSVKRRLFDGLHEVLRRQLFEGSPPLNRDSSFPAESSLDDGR

[2] = biological target: T2, BdTyrAnc (non-canonical arogenate dehydrogenase) (Brachypodium distachyon, UniProt I1GYB3); test: as above; settings: read-out: Ki / (μM tyrosine)
T2 construct: gene LOC100829970; without the predicted plastid transit peptide, poly-histidine tag
T2 sequence (I1GYB3 51-361): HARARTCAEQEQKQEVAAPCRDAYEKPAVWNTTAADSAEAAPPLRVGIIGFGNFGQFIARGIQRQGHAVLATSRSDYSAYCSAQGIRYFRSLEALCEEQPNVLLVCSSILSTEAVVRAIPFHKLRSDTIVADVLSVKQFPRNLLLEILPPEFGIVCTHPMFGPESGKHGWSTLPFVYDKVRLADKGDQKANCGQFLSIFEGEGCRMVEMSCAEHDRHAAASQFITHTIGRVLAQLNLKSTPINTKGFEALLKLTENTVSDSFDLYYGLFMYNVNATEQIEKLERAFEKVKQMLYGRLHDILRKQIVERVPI

[3] = biological target: T2, BdTyrAnc (non-canonical arogenate dehydrogenase); test: Michaelis-Menten kinetics of recombinant purified enzyme (Km)
[4] = biological target: T3, BdDHS1a (3-deoxy-D-arabino-heptulosonate 7-phosphate synthase) (Brachypodium distachyon, UniProt I1GSB3); test: recombinant purified enzyme, DHS activity (PEP consumption at […] nm); settings: read-out: IC50 / (μM Agn)
T3 construct: gene LOC100823133; without the predicted plastid transit peptide
T3 sequence (I1GSB3 46-537): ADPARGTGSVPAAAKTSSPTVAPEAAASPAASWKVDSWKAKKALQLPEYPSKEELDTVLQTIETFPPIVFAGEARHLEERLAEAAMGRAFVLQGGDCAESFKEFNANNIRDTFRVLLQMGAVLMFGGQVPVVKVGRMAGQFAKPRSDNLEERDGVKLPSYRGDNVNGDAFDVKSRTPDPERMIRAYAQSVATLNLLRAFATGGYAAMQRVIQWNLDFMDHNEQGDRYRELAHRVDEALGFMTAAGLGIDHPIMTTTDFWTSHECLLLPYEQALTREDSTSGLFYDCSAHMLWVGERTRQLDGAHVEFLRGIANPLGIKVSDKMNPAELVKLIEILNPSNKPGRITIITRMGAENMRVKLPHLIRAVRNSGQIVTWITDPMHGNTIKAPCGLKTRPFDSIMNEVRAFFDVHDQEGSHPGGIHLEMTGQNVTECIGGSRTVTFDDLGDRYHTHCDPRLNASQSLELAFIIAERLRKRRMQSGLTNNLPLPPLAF

[5] = biological target: T4, BdDHS2 (3-deoxy-D-arabino-heptulosonate 7-phosphate synthase) (Brachypodium distachyon, UniProt I1I809); test: as above; settings: read-out: IC50 / (μM Agn)
T4 construct: gene LOC100821423; without the predicted plastid transit peptide
T4 sequence (I1I809 51-503): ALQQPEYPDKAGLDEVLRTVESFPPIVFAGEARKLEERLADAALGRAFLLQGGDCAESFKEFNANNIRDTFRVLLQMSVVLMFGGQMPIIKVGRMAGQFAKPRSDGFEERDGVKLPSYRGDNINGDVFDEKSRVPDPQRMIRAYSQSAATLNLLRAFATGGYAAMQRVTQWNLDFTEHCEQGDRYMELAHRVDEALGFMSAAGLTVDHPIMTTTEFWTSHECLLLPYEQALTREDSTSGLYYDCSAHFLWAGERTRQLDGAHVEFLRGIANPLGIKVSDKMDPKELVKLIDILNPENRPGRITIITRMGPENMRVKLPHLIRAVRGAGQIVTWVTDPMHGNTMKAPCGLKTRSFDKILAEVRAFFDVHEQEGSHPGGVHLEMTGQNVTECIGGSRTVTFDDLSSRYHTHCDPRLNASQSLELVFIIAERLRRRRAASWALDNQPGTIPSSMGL

[6] = biological target: T4, BdDHS2 (3-deoxy-D-arabino-heptulosonate 7-phosphate synthase); test: recombinant purified enzyme, DHS activity assay; settings: read-out: IC50 / (μM Trp)

SMILES: N[C@@H](Cc1ccc(O)cc1)C(=O)O [tyrosine]
Ki [1]: 8 ± 2 µM
Ki [2]: 64 ± 25 µM

Km [3]: 0.13 ± 0.04 mM
IC50 [4]: 285 ± 24 µM
IC50 [5]: 91 ± 11 µM
SMILES: N[C@@H](C[C@]1(C(=O)O)C=C[C@@H](O)C=C1)C(=O)O [arogenate]

IC50 [6]: 120 ± 4 µM
SMILES: N[C@@H](Cc1c[nH]c2ccccc12)C(=O)O [tryptophan]
